Measured values as given in patent US20260315434A1, “USE OF GUAIACOL SESQUITERPENE LACTONE DERIVATIVES” (NANJING UNIVERSITY OF CHINESE MEDICINE, priority 2023, published 2026).
One block for each compound: values may come before it.

Legend:
[1] = tested on: T cells / MDSCs; test: Promotion of T cell proliferation in a co-culture model of MDSCs and T cells; format: cell-based, mouse; details: for activation at 1 µM: Mus musculus, T-cell, 12 h, read-out: T-cell proliferation rate (%), 1 μM, MDSCs treated 12 hours, co-culture of MDSCs and T cells, compared to the control group
Experimental: Under sterile conditions, the tibia was removed, both ends of the bone were cut, and bone marrow was repeatedly flushed into a 15 mL centrifuge tube using a 1 mL syringe filled with culture medium. Centrifuge at 1600 rpm for 5 min to collect bone marrow cells. […] The spleen cell suspension was then transferred into a 15 mL centrifuge tube. Centrifuge at 1600 rpm for 5 min to collect T cells. Wash twice with 1×PBS. Resuspend the centrifuged T cells in 1 mL PBS and add 1 mL of 10 μM CFDA-SE solution. Incubate at room temperature for 8 min. […] After drug administration, collect MDSC cells into centrifuge tubes. Centrifuge at 1600 rpm for 5 min, remove supernatant, resuspend in 1 mL fresh medium, and plate. Add 1 mL stimulated activated T cells (1:1 ratio) for 48 h co-culture. After incubation, collect cells into centrifuge tubes, wash twice with PBS, and incubate with Fc antibody at room temperature in the dark for 10 min. Add CD3-labeled flow cytometry antibody and incubate at 4° C. in the dark for 30 min. After incubation, wash cells with PBS, resuspend in 300 μL PBS, and analyze by flow cytometry.

[2] = Conversion (release) of prodrug salts to parent compound in mouse plasma; format: in vitro ADME; details: mouse, plasma, 37 °C, read-out: Release rate (conversion to Compound 1)
Experimental: (§1) Pharmaceutically acceptable salts of guaiane-type sesquiterpene lactone derivatives were selected and evaluated for their conversion rates to Compound 1 and Compound 83 in plasma and HEPES buffer, with results shown in Tables 2-1, 2-2, 3-1, and 3-2.
Plasma Preparation: Collect mouse plasma into an EP tube pre-loaded with sodium heparin, centrifuge at 8000 rpm for 10 minutes at 4° C., and then collect the supernatant.
(§2) Sample Analysis: Dissolve 0.6 mg of the compound in 250 μL of deionized water separately. Add 250 μL of mouse serum or HEPES 7.4 solution to the sample, incubate at a constant temperature of 37° C., and collect samples at different time points. Pipette 20 μL of the sample to an EP tube, add 60 μL of methanol, vortex to mix thoroughly, and centrifuge at 12,000 rpm at 4° C. for 10 min. At 1 h, 2 h, 4 h, 8 h, and 12 h respectively, collect the supernatant for HPLC analysis. Inject 10 μL of sample and record the corresponding peak areas. Chromatographic conditions: Hanbang C18 column (4.6×250 mm, 5 μm); mobile phase: acetonitrile: […] ammonium formate solution=60:40; flow rate 1.0 mL/min; detection wavelength 210 nm; column temperature 30° C.

[3] = Conversion (release) of prodrug salts to parent compound in HEPES buffer pH 7.4; format: in vitro ADME; details: hepes buffer, pH 7.4, HEPES pH 7.4, 37 °C, read-out: Release rate (conversion to Compound 1)
Experimental: as §1
Experimental Method: Preparation of HEPES 7.4 Solution: Dissolve 1.6 g NaCl, 0.074 g KCl, 0.027 g Na2HPO4, 0.2 g glucose, and 1 g 4-(2-Hydroxyethyl)piperazine-1-ethanesulfonic acid (HEPES) solution in 90 mL distilled water. Adjust the pH to 7.4 using 0.5 M NaOH, then dilute to a final volume 100 mL with distilled water.
as §2

Compound: C=C1C(=O)O[C@H]2[C@H]1CCC(C)=C1CC[C@@](C)(OC(=O)NC3CC3)[C@@H]12 [Compound 70]
activation at 1 µM [1]: 0 to 20%

Compound: C=C1C(=O)O[C@H]2[C@H]1CCC(C)=C1CC[C@@](C)(OC(=O)NCCO)[C@@H]12 [Compound 71]
activation at 1 µM [1]: > 40%

Compound: CC1=C2CC[C@@](C)(OC(=O)N3CCCC3)[C@@H]2[C@H]2OC(=O)C(CN3CCCC3)[C@@H]2CC1 (some centres unmarked) [compound 104]
T-cell proliferation rate (%) ([1]; 1 μM, MDSCs treated 12 hours, co-culture of MDSCs and T cells, compared to the control group): + (T-cell proliferation rate within the 0-20% range compared to the control group)

Compound: C=C1C(=O)O[C@H]2[C@H]1CCC(C)=C1CC[C@@](C)(OC(=O)NCC(C)C)[C@@H]12 [Compound 88]
activation at 1 µM [1]: 20 to 40%

Compound: C=C1C(=O)O[C@H]2[C@H]1CCC(C)=C1CC[C@@](C)(OC(=O)NCCCO)[C@@H]12 [Compound 72]
activation at 1 µM [1]: 20 to 40%

Compound: C=C1C(=O)O[C@H]2[C@H]1CCC(C)=C1CC[C@@](C)(OC(=O)N(C)C)[C@@H]12 [Compound 80]
activation at 1 µM [1]: 20 to 40%

metabolised at 1 h [2]: 6.8% | metabolised at 2 h [2]: 14.5% | metabolised at 4 h [2]: 24.4% | metabolised at 8 h [2]: 40.4% | metabolised at 12 h [2]: 49.1% | degraded at 1 h [3]: 6.8% | degraded at 2 h [3]: 14.5% | degraded at 4 h [3]: 24.4% | degraded at 8 h [3]: 40.4% | degraded at 12 h [3]: 50%
Compound: CCN(CC)C[C@@H]1C(=O)O[C@H]2[C@H]1CC[C@@]1(C)C[C@]13CC[C@@](C)(O)[C@H]23 [Compound 28]

Compound: C[C@@]12CC[C@@H]3[C@H](OC(=O)[C@H]3CN3CCCC3)[C@@H]3[C@]1(CC[C@@]3(C)O)C2 [Compound 22]
metabolised at 1 h [2]: 7.4% | metabolised at 2 h [2]: 16.8% | metabolised at 4 h [2]: 27.6% | metabolised at 8 h [2]: 46.3% | metabolised at 12 h [2]: 57.7% | degraded at 1 h [3]: 6.4% | degraded at 2 h [3]: 14.8% | degraded at 4 h [3]: 26.6% | degraded at 8 h [3]: 41.3% | degraded at 12 h [3]: 53.7%

metabolised at 1 h [2]: 7.9% | metabolised at 2 h [2]: 17.4% | metabolised at 4 h [2]: 28.4% | metabolised at 8 h [2]: 48.2% | metabolised at 12 h [2]: 59.1% | degraded at 1 h [3]: 6.9% | degraded at 2 h [3]: 15.4% | degraded at 4 h [3]: 27.4% | degraded at 8 h [3]: 42.2% | degraded at 12 h [3]: 54.8%
Compound: CCN1CCN(C[C@@H]2C(=O)O[C@H]3[C@H]2CC[C@@]2(C)C[C@]24CC[C@@](C)(O)[C@H]34)CC1 [Compound 27]

Compound: C=C1C(=O)O[C@H]2[C@H]1CCC(C)=C1CC[C@@](C)(OC(=O)NCCCN3CCN(C)CC3)[C@@H]12 [Compound 93]
activation at 1 µM [1]: 20 to 40%

Compound: C=C1C(=O)O[C@H]2[C@H]1CCC(C)=C1CC[C@@](C)(OC(=O)N(CC)CCC)[C@@H]12 [Compound 91]
activation at 1 µM [1]: 20 to 40%

Compound: C=C1C(=O)O[C@H]2[C@H]1CCC(C)=C1CC[C@@](C)(OC(=O)NCCOC)[C@@H]12 [Compound 74]
activation at 1 µM [1]: > 40%

Compound: C=C1C(=O)O[C@H]2[C@H]1CCC(C)=C1CC[C@@](C)(OC(=O)N3CCN(CC)CC3)[C@@H]12 [Compound 86]
activation at 1 µM [1]: 20 to 40%

Compound: C=C1C(=O)O[C@H]2[C@H]1CCC(C)=C1CC[C@@](C)(OC(=O)NCCC)[C@@H]12 [Compound 66]
activation at 1 µM [1]: 0 to 20%
